Data from article PMC10700673, “A Smart Intracellular Self‐Assembling Bioorthogonal Raman Active Nanoprobe for Targeted Tumor Imaging” (Advanced Science, 2023).

Target: T1, Recombinant human legumain (Homo sapiens, UniProt Q99538)
T1 construct: purchased R&D systems
T1 sequence (Q99538 18-433): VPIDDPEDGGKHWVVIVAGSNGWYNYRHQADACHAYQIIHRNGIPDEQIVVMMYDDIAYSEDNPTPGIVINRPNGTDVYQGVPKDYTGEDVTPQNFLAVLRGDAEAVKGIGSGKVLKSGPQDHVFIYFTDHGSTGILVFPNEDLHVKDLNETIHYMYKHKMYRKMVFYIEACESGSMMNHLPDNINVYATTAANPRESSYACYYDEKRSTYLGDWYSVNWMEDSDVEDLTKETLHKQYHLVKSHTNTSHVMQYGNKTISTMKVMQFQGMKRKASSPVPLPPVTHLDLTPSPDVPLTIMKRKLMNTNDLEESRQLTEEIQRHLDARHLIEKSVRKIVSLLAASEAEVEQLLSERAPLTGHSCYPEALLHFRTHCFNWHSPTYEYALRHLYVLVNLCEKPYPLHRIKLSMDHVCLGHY
Experiment: legumain- and GSH-triggered cleavage and condensation in solution (Raman, HPLC, MALDI)
Type: biochemical
Conditions: 37 °C
Description: The detailed synthetic procedures and characterization of the nanoSABER probe are given in Scheme S1 and Figures S1 and S2 (Supporting Information), respectively. The Raman signatures of nanoSABER (Figure 2a) display the vibrational stretching frequencies of alkyne and nitrile at 2121 and 2230 cm^−1, respectively. The ratio of alkyne/nitrile Raman peak intensity in the nanoSABER solutions was measured to be 0.21±0.04. Next, we studied the cleavage of the nanoSABER probe by legumain, leading to the formation of supramolecular self‐assembled nanoparticles. This was verified using high‐resolution matrix‐assisted laser desorption/ionization–time‐of‐flight mass spectrometry (MALDI), RS, and high‐performance liquid chromatography (HPLC). We first incubated 25 µM of nanoSABER probe with 250 µM GSH for 2 h at 37 °C. This reduced the disulfide bond of D‐cysteine, producing reduced nanoSABER, which was identified using HPLC and MALDI by the appearance of a peak at a retention time of 16.5 min (Figure 2b) and an observed mass of 1737.5 (Figure 2c). When nanoSABER was co‐incubated with 250 µM GSH and 3 µL (10 µg/50 µL) legumain enzyme for 3 h at 37 °C, the reduced nanoSABER that was generated in situ reacted with the legumain enzyme to form an active cleaved intermediate. The latter underwent intermolecular condensation to yield the alkyne‐dimer. […] Both HPLC fractions were collected and characterized by MALDI.
Figure 2 Optical and structural properties of nanoSABER (R6‐AAN‐alkyne‐nitrile) and alkyne‐dimer. a) Raman spectra of R6AAN‐alkyne and nanoSABER showing the alkyne and nitrile vibrational stretching frequency at 2121 cm^−1 and 2230 cm^−1, respectively, expressed as the mean ± standard deviation for n = 22 independent in vitro measurements. b) HPLC chromatogram of 250 µM nanoSABER (red) and 250 µM nanoSABER + 1 mM GSH incubated for 3 h (green), and 250 µM nanoSABER + 1 mM GSH + 3 µL (10 µg/50 µL) legumain incubated for 3 h (blue). c–e) HR‐MALDI‐TOF/MS spectra of reduced nanoSABER, cleaved R6‐AAN, and alkyne‐dimer. f) Raman spectra of 250 µM nanoSABER + 1 mM GSH + 3 µL (10 µg/50 µL) legumain incubated for 3 h, shown as the mean with a standard deviation of n = 22 independent in vitro measurements. g) Enzymatic conversion ratios of 250 µM nanoSABER in the presence of 1 mM GSH and 3 µL (10 µg/50 µL) legumain enzyme as a function of time, as calculated from the alkyne/nitrile Raman peak intensity ratio. h,i) TEM and DLS of alkyne‐dimer nanoparticles (red circles) after incubation of 250 µM nanoSABER + 1 mM GSH + 3 µL (10 µg/50 µL) legumain for 3 h at 37 °C. All subpanels reflect representative data from i n vitro experiments repeated three times unless stated.
To accurately evaluate the efficiency of the R6‐AAN‐alkyne‐nitrile nanoprobe, time‐dependent Raman measurements were performed (Figure 2g), where the ratio of alkyne/nitrile peak intensity was used as an indicator of the reaction progress. We found as the reaction progressed the alkyne/nitrile peak intensity increased from 0.22±0.01 to 4.4±0.12 and plateaued at a final value of 4.6±0.12 indicating almost complete conversion of nanoSABER to alkyne‐dimer within 3 h. […] To further get insight into the structural arrangements of the self‐assembled dimers, transmission electron microscopy (TEM) was performed. […]

- cleavage and condensation by legumain (HPLC retention time and MALDI mass) (250 µM + 1 mM GSH + 3 µL (10 µg/50 µL) legumain, 3 h): efficiently cleaved by legumain
- time to almost complete conversion to alkyne-dimer (250 µM nanoSABER + 1 mM GSH + 3 µL (10 µg/50 µL) legumain, from the alkyne/nitrile Raman ratio): ≤ 3 h
- alkyne/nitrile peak intensity ratio, start of reaction (250 µM nanoSABER + 1 mM GSH + 3 µL (10 µg/50 µL) legumain, time-dependent Raman, initial value): 0.22±0.01
- alkyne/nitrile peak intensity ratio, plateau final value (250 µM nanoSABER + 1 mM GSH + 3 µL (10 µg/50 µL) legumain, time-dependent Raman, plateau): 4.6±0.12
- alkyne/nitrile peak intensity ratio, as the reaction progressed (250 µM nanoSABER + 1 mM GSH + 3 µL (10 µg/50 µL) legumain, time-dependent Raman, value reached before plateau): 4.4±0.12
Substance: Ac‐Arg‐Arg‐Arg‐Arg‐Arg‐Arg‐Ala‐Ala‐Asn‐Cys(StBu)‐Pra‐Lys‐CBT [nanoSABER]
